Measurements from patent publication US20250179078A1, “INHIBITORS OF NLRP3” (PTC THERAPEUTICS, INC., priority 2022, published 2025).

Target: T1, NLRP3 (Homo sapiens, UniProt Q96P20)
T1 construct: host or cells: THP-1 cells differentiated with PMA
Test: IL-1β Secretion Assay (NLRP3-dependent IL1β secretion in THP1 cells)
Type: cell-based
Conditions: PMA-differentiated THP-1 cells; compounds incubated 20 h; 2.5 μM Nigericin 3 h; HTRF IL-1β readout; read-out: IC50 IL-1β Inhibition
How it was run: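 IL-1β in conditioned media, measured by HTRF after 3 h 2.5 μM nigericin stimulation, gave % inhibition fitted logistically for IC50. Before that, PMA-differentiated (100 ng/mL, 24 h) THP-1 cells were preincubated 20 h with 7 compound concentrations (3-fold serial, DMSO 1:200).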

T1 sequence (Q96P20 whole entry): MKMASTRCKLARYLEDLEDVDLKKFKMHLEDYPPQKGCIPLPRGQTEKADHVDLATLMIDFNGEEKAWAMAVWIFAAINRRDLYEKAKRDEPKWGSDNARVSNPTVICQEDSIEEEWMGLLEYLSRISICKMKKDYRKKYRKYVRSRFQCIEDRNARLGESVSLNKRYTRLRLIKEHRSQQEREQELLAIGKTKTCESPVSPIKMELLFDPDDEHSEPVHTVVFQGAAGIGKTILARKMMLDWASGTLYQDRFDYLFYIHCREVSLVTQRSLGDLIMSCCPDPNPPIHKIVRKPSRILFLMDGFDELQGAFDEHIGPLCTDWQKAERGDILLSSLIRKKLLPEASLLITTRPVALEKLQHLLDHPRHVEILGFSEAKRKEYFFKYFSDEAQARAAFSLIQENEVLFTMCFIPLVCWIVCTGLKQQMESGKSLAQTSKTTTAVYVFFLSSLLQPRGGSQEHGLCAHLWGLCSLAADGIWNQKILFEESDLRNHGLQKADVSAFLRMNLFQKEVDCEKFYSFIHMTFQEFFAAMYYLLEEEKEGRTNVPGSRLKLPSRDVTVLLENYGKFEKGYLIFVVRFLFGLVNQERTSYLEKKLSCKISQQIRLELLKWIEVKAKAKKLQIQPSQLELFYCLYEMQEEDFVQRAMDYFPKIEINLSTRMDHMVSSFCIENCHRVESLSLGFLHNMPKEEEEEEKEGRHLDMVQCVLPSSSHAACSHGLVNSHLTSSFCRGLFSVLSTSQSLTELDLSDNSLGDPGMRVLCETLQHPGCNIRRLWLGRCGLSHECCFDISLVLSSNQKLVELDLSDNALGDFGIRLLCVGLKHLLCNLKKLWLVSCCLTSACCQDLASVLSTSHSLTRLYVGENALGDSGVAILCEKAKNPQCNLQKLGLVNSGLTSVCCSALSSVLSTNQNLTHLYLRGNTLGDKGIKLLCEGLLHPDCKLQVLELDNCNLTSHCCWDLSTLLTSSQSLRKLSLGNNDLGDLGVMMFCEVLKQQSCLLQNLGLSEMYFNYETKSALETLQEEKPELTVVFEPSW

Row | IC50 | Structure (SMILES)
1 | 10 to 100 nM | COc1ccc(-c2nnc(N[C@@H]3CCCC[C@H]3O)n3cc(C)cc23)c(OC(F)(F)F)c1 [Compound 163, (1R,2R)-2-({1-[4-methoxy-2-(trifluoromethoxy)phenyl]-7-methylpyrrolo[1,2-d][1,2,4]triazin-4-yl}amino)cyclohexan-1-ol]
2 | 1 to 10 nM | COc1ccc(-c2nnc(N[C@H]3C[C@@](C)(O)C3)n3nc(C)cc23)c(CC(F)(F)F)c1 [Compound 387, (1s,3s)-3-({4-[4-methoxy-2-(2,2,2-trifluoroethyl)phenyl]-2-methylpyrazolo[1,5-d][1,2,4]triazin-7-yl}amino)-1-methylcyclobutan-1-ol]
3 | 1 to 10 nM | OCCN1CCC[C@@H](Nc2nnc(-c3ccc(Br)cc3C(F)(F)F)c3cncn23)C1 [Compound 201, 2-[(3R)-3-({1-[4-bromo-2-(trifluoromethyl)phenyl]imidazo[1,5-d][1,2,4]triazin-4-yl}amino)piperidin-1-yl]ethan-1-ol]
4 | 1 to 10 nM | OC[C@H]1C[C@@H](Nc2nnc(-c3ccc(C(F)(F)F)cc3OC(F)(F)F)c3cncn23)C1 [Compound 255, [(1s,3s)-3-({1-[2-(trifluoromethoxy)-4-(trifluoromethyl)phenyl]imidazo[1,5-d][1,2,4]triazin-4-yl}amino)cyclobutyl]methanol]
5 | 1 to 10 nM | COc1ccc(-c2nnc(N[C@@H]3CCCN(C)C3)n3cncc23)c(C(F)(F)C(F)(F)F)c1 [Compound 281, 1-[4-methoxy-2-(pentafluoroethyl)phenyl]-N-[(3R)-1-methylpiperidin-3-yl]imidazo[1,5-d][1,2,4]triazin-4-amine]
6 | 1 to 10 nM | Cc1ccc(-c2nnc(N[C@@H]3CCCC[C@H]3O)n3cncc23)c(CC(F)(F)F)c1 [Compound 286, (1R,2R)-2-({1-[4-methyl-2-(2,2,2-trifluoroethyl)phenyl]imidazo[1,5-d][1,2,4]triazin-4-yl}amino)cyclohexan-1-ol]
7 | 1 to 10 nM | COc1ccc(-c2nnc(NC3CCNC3=O)n3cncc23)c(CC(F)(F)F)c1 (stereo not drawn) [Compound 238, 3-({1-[4-methoxy-2-(2,2,2-trifluoroethyl)phenyl]imidazo[1,5-d][1,2,4]triazin-4-yl}amino)pyrrolidin-2-one]
8 | 10 to 100 nM | CC1(CO)CC(Nc2nnc(-c3ccc(C(F)(F)F)cc3OC(F)(F)F)c3cncn23)C1 (stereo not drawn) [Compound 335, [1-methyl-3-({1-[2-(trifluoromethoxy)-4-(trifluoromethyl)phenyl]imidazo[1,5-d][1,2,4]triazin-4-yl}amino)cyclobutyl]methanol]
9 | < 1 nM | CCN1CCC[C@@H](Nc2nnc(-c3ccc(OC(F)F)cc3OC(F)(F)F)c3cccn23)C1 [Compound 85, 1-[4-(difluoromethoxy)-2-(trifluoromethoxy)phenyl]-N-[(3R)-1-ethylpiperidin-3-yl]pyrrolo[1,2-d][1,2,4]triazin-4-amine]
10 | < 1 nM | CCN1CC[C@@H](O)[C@@H](Nc2nnc(-c3ccc(OC(F)F)cc3OC(F)(F)F)c3cccn23)C1 [Compound 171, (3S,4R)-3-({1-[4-(difluoromethoxy)-2-(trifluoromethoxy)phenyl]pyrrolo[1,2-d][1,2,4]triazin-4-yl}amino)-1-ethylpiperidin-4-ol]
11 | 1 to 10 nM | COc1ccc(-c2nnc(N[C@@H]3CCCC[C@@]3(C)O)n3cncc23)c(OC(F)(F)F)c1 (single isomer, unassigned) [Compound 311]
12 | < 1 nM | CN1CCC[C@@H](Nc2nnc(-c3ccc(C4CC4)cc3OC(F)F)c3cncn23)C1 [Compound 203, 1-[4-cyclopropyl-2-(difluoromethoxy)phenyl]-N-[(3R)-1-methylpiperidin-3-yl]imidazo[1,5-d][1,2,4]triazin-4-amine]
13 | < 1 nM | O[C@@H]1CCCC[C@H]1Nc1nnc(-c2ccc(C(F)(F)F)cc2C(F)(F)F)c2cncn12 [Compound 243, (1R,2R)-2-({1-[2,4-bis(trifluoromethyl)phenyl]imidazo[1,5-d][1,2,4]triazin-4-yl}amino)cyclohexan-1-ol]
14 | 10 to 100 nM | CCN1CCC[C@@H](Nc2nnc(-c3ccc(S(C)(=O)=O)cc3OC(F)(F)F)c3cc(C)nn23)C1 [Compound 369, N-[(3R)-1-ethylpiperidin-3-yl]-4-[4-(methanesulfonyl)-2-(trifluoromethoxy)phenyl]-2-methylpyrazolo[1,5-d][1,2,4]triazin-7-amine]
15 | 1 to 10 nM | O[C@@H]1CCCC[C@H]1Nc1nnc(-c2ccc(C(F)(F)F)cc2OC(F)(F)F)c2ccnn12 [Compound 398, (1R,2R)-2-({4-[2-(trifluoromethoxy)-4-(trifluoromethyl)phenyl]pyrazolo[1,5-d][1,2,4]triazin-7-yl}amino)cyclohexan-1-ol]
16 | 1 to 10 nM | O[C@H]1CCC[C@@H](Nc2nnc(-c3ccc(OC(F)F)cc3OC(F)(F)F)c3cncn23)C1 [Compound 245, (1S,3R)-3-({1-[4-(difluoromethoxy)-2-(trifluoromethoxy)phenyl]imidazo[1,5-d][1,2,4]triazin-4-yl}amino)cyclohexan-1-ol]

Row | IC50 | Structure (SMILES)
17 | 100 to 300 nM | COc1ccc(-c2nnc(NCc3nncn3C)n3cccc23)c(OC(F)(F)F)c1 [Compound 92, 1-[4-methoxy-2-(trifluoromethoxy)phenyl]-N-[(4-methyl-4H-1,2,4-triazol-3-yl)methyl]pyrrolo[1,2-d][1,2,4]triazin-4-amine]
18 | 1 to 10 nM | Cc1cc2c(-c3ccc(C(F)(F)F)cc3C(F)F)nnc(N[C@@H]3CCCN(C)C3)n2n1 [Compound 359, 4-[2-(difluoromethyl)-4-(trifluoromethyl)phenyl]-2-methyl-N-[(3R)-1-methylpiperidin-3-yl]pyrazolo[1,5-d][1,2,4]triazin-7-amine]
19 | 10 to 100 nM | FC(F)Oc1cc(Cl)ccc1-c1nnc(N[C@@H]2CCCOC2)n2cncc12 [Compound 189, 1-[4-chloro-2-(difluoromethoxy)phenyl]-N-[(3R)-oxan-3-yl]imidazo[1,5-d][1,2,4]triazin-4-amine]
20 | 1 to 10 nM | COc1ccc(-c2nnc(N[C@H]3C[C@@](C)(O)C3)n3cccc23)c(CC(F)(F)F)c1 [Compound 1, (1s,3s)-3-({1-[4-methoxy-2-(2,2,2-trifluoroethyl)phenyl]pyrrolo[1,2-d][1,2,4]triazin-4-yl}amino)-1-methylcyclobutan-1-ol]
21 | 1 to 10 nM | CCN1CC[C@@H](O)[C@@H](Nc2nnc(-c3ccc(C(F)(F)F)cc3C(F)(F)F)c3cc(C)cn23)C1 [Compound 134, (3S,4R)-3-({1-[2,4-bis(trifluoromethyl)phenyl]-7-methylpyrrolo[1,2-d][1,2,4]triazin-4-yl}amino)-1-ethylpiperidin-4-ol]
22 | 10 to 100 nM | Cc1cc2c(-c3ccc(Cl)cc3C(F)F)nnc(N[C@@H]3CCCN(C)C3)n2n1 [Compound 362, 4-[4-chloro-2-(difluoromethyl)phenyl]-2-methyl-N-[(3R)-1-methylpiperidin-3-yl]pyrazolo[1,5-d][1,2,4]triazin-7-amine]
23 | 1 to 10 nM | CCN1CCC[C@@H](Nc2nnc(-c3ccc(OC)cc3C3CC3)c3cc(C)nn23)C1 [Compound 379, 4-(2-cyclopropyl-4-methoxyphenyl)-N-[(3R)-1-ethylpiperidin-3-yl]-2-methylpyrazolo[1,5-d][1,2,4]triazin-7-amine]
24 | 10 to 100 nM | O[C@H]1CCCC[C@@H]1Nc1nnc(-c2ccc(C(F)(F)F)cc2OC(F)(F)F)c2cncn12 [Compound 290]
25 | 100 to 300 nM | COc1ccc(-c2nnc(NC3CC(C(C)(C)O)C3)n3cncc23)c(OC(F)(F)F)c1 (stereo not drawn) [Compound 338, 2-[3-({1-[4-methoxy-2-(trifluoromethoxy)phenyl]imidazo[1,5-d][1,2,4]triazin-4-yl}amino)cyclobutyl]propan-2-ol]
26 | 1 to 10 nM | Cc1cc2c(-c3ccc(C(F)(F)F)cc3OC(F)(F)F)nnc(N[C@H]3C[C@@](C)(O)C3)n2n1 [Compound 3, (1s,3s)-1-methyl-3-({2-methyl-4-[2-(trifluoromethoxy)-4-(trifluoromethyl)phenyl]pyrazolo[1,5-d][1,2,4]triazin-7-yl}amino)cyclobutan-1-ol]
27 | < 1 nM | COc1ccc(-c2nnc(N[C@@H]3CCCN(CCO)C3)n3cncc23)c(CC(F)(F)F)c1 [Compound 278, 2-[(3R)-3-({1-[4-methoxy-2-(2,2,2-trifluoroethyl)phenyl]imidazo[1,5-d][1,2,4]triazin-4-yl}amino)piperidin-1-yl]ethan-1-ol]
28 | 1 to 10 nM | Oc1cccc(CNc2nnc(-c3ccc(C(F)(F)F)cc3OC(F)F)c3cccn23)c1 [Compound 101, 3-[{{1-[2-(difluoromethoxy)-4-(trifluoromethyl)phenyl]pyrrolo[1,2-d][1,2,4]triazin-4-yl}amino)methyl]phenol]
29 | < 1 nM | O[C@@H]1CCCC[C@H]1Nc1nnc(-c2ccc(C(F)(F)F)cc2OC(F)(F)F)c2cncn12 [Compound 242, (1R,2R)-2-({1-[2-(trifluoromethoxy)-4-(trifluoromethyl)phenyl]imidazo[1,5-d][1,2,4]triazin-4-yl}amino)cyclohexan-1-ol]
30 | 1 to 10 nM | CCN1CCC[C@@H](Nc2nnc(-c3ccc(C)cc3OC(F)F)c3cccn23)C1 [Compound 34, 1-[2-(difluoromethoxy)-4-methylphenyl]-N-[(3R)-1-ethylpiperidin-3-yl]pyrrolo[1,2-d][1,2,4]triazin-4-amine]
31 | < 1 nM | CCN1CCC[C@@H](Nc2nnc(-c3ccc(Cl)cc3OC(F)F)c3cncn23)C1 [Compound 191, 1-[4-chloro-2-(difluoromethoxy)phenyl]-N-[(3R)-1-ethylpiperidin-3-yl]imidazo[1,5-d][1,2,4]triazin-4-amine]
32 | 1 to 10 nM | Cc1ccc(-c2nnc(N[C@@H]3CCCN(C)C3)n3cc(C)cc23)c(OC(F)F)c1 [Compound 25, 1-[2-(difluoromethoxy)-4-methylphenyl]-7-methyl-N-[(3R)-1-methylpiperidin-3-yl]pyrrolo[1,2-d][1,2,4]triazin-4-amine]

Row | Structure (SMILES) | IC50
33 | COc1ccc(-c2nnc(N[C@H](C)c3cccc(O)c3)n3cncc23)c(OC(F)(F)F)c1 (single isomer, unassigned) [Compound 248] | ≥ 300 nM
